Assay results reported in ChEMBL document CHEMBL1649339, “Abietane and C20-norabietane diterpenes from the stem bark of Fraxinus sieboldiana and their biological activities” (J Nat Prod, 2010).

Assays:
HCT-8 = assay: Cytotoxicity against human HCT8 cells after 24 hrs by MTT assay; format: functional, cell-based; conditions: HCT-8, 24 h
Bel-7402 = assay: Cytotoxicity against human Bel7402 cells after 24 hrs by MTT assay; format: functional, cell-based; conditions: Bel-7402, 24 h
BGC-823 = assay: Cytotoxicity against human BGC823 cells after 24 hrs by MTT assay; format: functional, cell-based; conditions: BGC-823, 24 h
A549 = assay: Cytotoxicity against human A549 cells after 24 hrs by MTT assay; format: functional, cell-based; conditions: A549, 24 h
A2780 = assay: cells; conditions: Homo sapiens, A2780, 24 h
Description: Cytotoxicity against human A2780 cells after 24 hrs by MTT assay

[1] = Antiinflammatory activity in PAF-induced rat Polymorphonuclear leukocyte assessed as inhibition of beta-glucuronidase release at 10^-5 M; format: functional
Influenza A virus = assay: microbe, parasite or virus in culture; format: functional, organism-based; conditions: HEK-293T

CC(C)c1cc2c(cc1O)[C@]13CCC[C@](C)(COC1=O)[C@@H]3CC2
IC50 (HCT-8): > 10 µM | IC50 (Bel-7402): > 10 µM | IC50 (BGC-823): > 10 µM | IC50 (A549): > 10 µM | IC50 (A2780): > 10 µM

CC(C)C1=C[C@]23CC[C@H]4[C@]5(C)CCC[C@@]4(C2=CC1=O)[C@@H](OC5)O3
IC50 (HCT-8): > 10 µM | IC50 (Bel-7402): > 10 µM | IC50 (BGC-823): > 10 µM | IC50 (A549): > 10 µM | IC50 (A2780): > 10 µM

CC(C)c1cc2c(cc1O)C1=C(CC2)C(C)(C)CC[C@H]1O
IC50 (HCT-8): > 10 µM | IC50 (Bel-7402): > 10 µM | IC50 (BGC-823): > 10 µM | IC50 (A549): > 10 µM | IC50 (A2780): > 10 µM

CC(C)c1cc2c(cc1O)[C@@]13CCCC(C)(C)[C@@H]1[C@H](OC3=O)C2=O
IC50 (HCT-8): > 10 µM | IC50 (Bel-7402): > 10 µM | IC50 (BGC-823): > 10 µM | IC50 (A549): > 10 µM | IC50 (A2780): > 10 µM

CC(C)c1cc2c(cc1O)[C@H]1CCCC(C)(C)[C@@H]1CC2=O
IC50 (HCT-8): > 10 µM | IC50 (Bel-7402): > 10 µM | IC50 (BGC-823): > 10 µM | IC50 (A549): > 10 µM | inhibition at 10 µM [1]: 56.1% | IC50 (A2780): > 10 µM

CC(C)c1ccc2c(c1)C(=O)C[C@H]1C(C)(C)CCC[C@]21C
IC50 (HCT-8): > 10 µM | IC50 (Bel-7402): > 10 µM | IC50 (BGC-823): > 10 µM | IC50 (A549): > 10 µM | IC50 (Influenza A virus): 4.8 µM | IC50 (A2780): > 10 µM

CC(C)c1cc2c(cc1O)[C@@]13CCCC(C)(C)[C@@H]1[C@H](OC3=O)[C@@H]2O
IC50 (HCT-8): > 10 µM | IC50 (Bel-7402): > 10 µM | IC50 (BGC-823): > 10 µM | IC50 (A549): 6 µM | IC50 (A2780): > 10 µM

CCO[C@@H]1OC[C@@]2(C)CCC[C@@]13c1cc(O)c(C(C)C)cc1CC[C@@H]23
IC50 (HCT-8): > 10 µM | IC50 (Bel-7402): > 10 µM | IC50 (BGC-823): > 10 µM | IC50 (A549): > 10 µM | IC50 (A2780): > 10 µM

CC(C)c1cc2c(cc1O)[C@]13CCC[C@]4(C)CO[C@@H]1O[C@H]2C[C@@H]43
IC50 (HCT-8): > 10 µM | IC50 (Bel-7402): > 10 µM | IC50 (BGC-823): > 10 µM | IC50 (A549): > 10 µM | inhibition at 10 µM [1]: 59.7% | IC50 (A2780): > 10 µM

CC(C)c1cc2ccc3c(c2cc1O)C(=O)CCC3(C)C
IC50 (HCT-8): > 10 µM | IC50 (Bel-7402): > 10 µM | IC50 (BGC-823): > 10 µM | IC50 (A549): > 10 µM | IC50 (A2780): > 10 µM

CO[C@@H]1OC[C@@]2(C)CCC[C@@]13c1cc(O)c(C(C)C)cc1CC[C@@H]23
IC50 (HCT-8): > 10 µM | IC50 (Bel-7402): > 10 µM | IC50 (BGC-823): > 10 µM | IC50 (A549): > 10 µM | IC50 (A2780): > 10 µM

CO[C@H]1OC[C@@]2(C)CCC[C@@]13c1cc(O)c(C(C)C)cc1CC[C@@H]23
IC50 (HCT-8): > 10 µM | IC50 (Bel-7402): > 10 µM | IC50 (BGC-823): > 10 µM | IC50 (A549): > 10 µM | IC50 (A2780): > 10 µM

CC(C)c1cc2c(cc1O)[C@@]1(O)CCCC(C)(C)[C@@H]1CC2=O
IC50 (HCT-8): > 10 µM | IC50 (Bel-7402): > 10 µM | IC50 (BGC-823): > 10 µM | IC50 (A549): > 10 µM | IC50 (A2780): > 10 µM

CC(C)c1cc2c(cc1O)[C@@]1(C=O)CCCC(C)(C)[C@@H]1CC2
IC50 (HCT-8): > 10 µM | IC50 (Bel-7402): > 10 µM | IC50 (BGC-823): > 10 µM | IC50 (A549): > 10 µM | inhibition at 10 µM [1]: 65.9%

CC(C)c1cc2c(cc1O)[C@]13CCC[C@](C)(CO[C@@H]1O)[C@@H]3CC2
IC50 (HCT-8): > 10 µM | IC50 (Bel-7402): > 10 µM | IC50 (BGC-823): > 10 µM | IC50 (A549): > 10 µM | IC50 (A2780): > 10 µM

CC(C)c1cc2c(cc1O)[C@@]1(O)CCC[C@](C)(CO)[C@@H]1CC2=O
IC50 (HCT-8): > 10 µM | IC50 (Bel-7402): > 10 µM | IC50 (BGC-823): > 10 µM | IC50 (A549): > 10 µM | IC50 (A2780): > 10 µM

CC(C)C1=C[C@]23O[C@H]2[C@H]2OC(=O)[C@@]4(CCCC(C)(C)[C@H]24)C3=CC1=O
IC50 (HCT-8): > 10 µM | IC50 (Bel-7402): > 10 µM | IC50 (BGC-823): > 10 µM | IC50 (A549): > 10 µM | IC50 (A2780): 1.7 µM

CC(C)C1=C[C@]2(O)CC[C@H]3[C@]4(C)CCC[C@]3(C(=O)OC4)C2=CC1=O
IC50 (HCT-8): > 10 µM | IC50 (Bel-7402): > 10 µM | IC50 (BGC-823): > 10 µM | IC50 (A549): > 10 µM | IC50 (A2780): > 10 µM

CC[C@@]1(O)C(=O)OCc2c1cc1n(c2=O)Cc2cc3ccccc3nc2-1 [CAMPTOTHECIN]
IC50 (A549): 3.6 µM | IC50 (A2780): 0.2 µM

CC(C)c1cc2c(cc1O)[C@]13CCC[C@](C)(CO[C@H]1O)[C@@H]3CC2
IC50 (HCT-8): > 10 µM | IC50 (Bel-7402): > 10 µM | IC50 (BGC-823): > 10 µM | IC50 (A549): > 10 µM | IC50 (A2780): > 10 µM

CCO[C@@H]1C[C@@H]2C(=CC(=O)CC2(C)C)c2cc(O)c(C(C)C)cc21
IC50 (HCT-8): > 10 µM | IC50 (Bel-7402): > 10 µM | IC50 (BGC-823): > 10 µM | IC50 (A549): > 10 µM | IC50 (A2780): > 10 µM

CC(C)c1cc2c(cc1O)[C@@]13CCCC(C)(C)[C@@H]1[C@H](OC3=O)[C@H]2O
IC50 (HCT-8): > 10 µM | IC50 (Bel-7402): > 10 µM | IC50 (BGC-823): > 10 µM | IC50 (A549): > 10 µM | IC50 (A2780): > 10 µM

CCO[C@@H]1OC[C@@]2(C)CCC[C@@]13c1cc(O)c(C(C)C)cc1C(=O)C[C@@H]23
IC50 (HCT-8): > 10 µM | IC50 (Bel-7402): > 10 µM | IC50 (BGC-823): > 10 µM | IC50 (A549): > 10 µM | IC50 (A2780): > 10 µM

CC(C)c1cc2c(cc1O)C1=CC(=O)CC(C)(C)[C@@H]1CC2
IC50 (HCT-8): > 10 µM | IC50 (Bel-7402): > 10 µM | IC50 (BGC-823): > 10 µM | IC50 (A549): > 10 µM | IC50 (A2780): > 10 µM
